# Measured values taken from US20190210996A1, “NOVEL COMPOUNDS” (GLAXOSMITHKLINE INTELLECTUAL PROPERTY DEVELOPMENT LIMITED, priority 2016, published 2019).
# Experiments:
# Assay type in all cases: cell-based
# RPS6KA3 = biological target: T1, RPS6KA3 (Homo sapiens, UniProt P51812); experiment: Expression proteomics in THP-1 cells: RPS6KA3 protein level; conditions: RPS6KA3, THP-1 cells
# T1 construct: endogenous in cells; host or cells: THP-1
# Description: (§1) THP-1 cells were seeded at a concentration of 3×10^6 cells in T175 flasks with 60 mL growth medium (RPMI1640+10% FBS). […] of a 10× compound solution prepared in growth medium (DMSO), CEREBLON_PROTAC) was added and the cells were treated for the indicated time points (6 or 24 h) at 37° C., 5% CO2. For harvesting the cells were collected into falcon tubes on ice, centrifuged and washed twice in cold PBS (Life technologies). After the last washing step the supernatant was removed and the pellets were snap-frozen in liquid N2 and stored at −80° C. and lysed in 2% SDS for 3 min at 95° C. in a thermomixer (Thermo Fisher Scientific), followed by digestion of DNA with Benzonase at 37° C. for 1.5 h. Lysate was cleared by centrifugation an protein concentration in supernatant was determined by BCA assay.
# (§2) Leukemia 25, 89-100 (2011).
# (§3) Samples were dried in vacuo and resuspended in 0.05% trifluoroacetic acid in water. Of the sample, 50% was injected into an Ultimate3000 nanoRLSC (Dionex, Sunnyvale, Calif.) coupled to a Q Exactive HF (Thermo Fisher Scientific). Peptides were trapped on a 5 mm×300 μm C18 column (Pepmap100, 5 μm, 300 Å, Thermo Fisher Scientific) in water with 0.05% TFA at 60° C. Separation was performed on custom 50 cm×[…] (ID) reversed-phase columns (Reprosil) at 55° C. Gradient elution was performed from 2% acetonitrile to 40% acetonitrile in 0.1% formic acid and 3.5% DMSO over 2 hours. Samples were online injected into Q-Exactive HF mass spectrometers operating with a data-dependent top 10 method. MS spectra were acquired by using 60.000 resolution and an ion target of 3×10^6. Higher energy collisional dissociation (HCD) scans were performed with 35% NCE at 30.000 resolution (at m/z 200), and the ion target settings was set to 2×10^5 so as to avoid coalescence (Werner, T. et al. Ion Coalescence of Neutron Encoded TMT 10-Plex Reporter Ions. Anal. Chem. 86, 3594-3601 (2014).
# (§4) The first search was performed with 30 parts per million mass tolerance for peptide precursors and 30 mD (HCD) mass tolerance for fragment ions followed by a final search using recalibrated data with a 10 parts per million mass tolerance for peptide precursors and 20 mD (HCD) mass tolerance for fragment ions. Carbamidomethylation of cysteine residues and TMT modification of lysine residues were set as fixed modifications and methionine oxidation, and N-terminal acetylation of proteins and TMT modification of peptide N-termini were set as variable modifications. […]
# (§5) Nat Biotech 29, 255-265 (2011). this measure is referred to as ion area Savitski, M. M. et al. Delayed Fragmentation and Optimized Isolation Width Settings for Improvement of Protein Identification and Accuracy of Isobaric Mass Tag Quantification on Orbitrap-Type Mass Spectrometers. […]
# AURKA = biological target: T2, AURKA (Homo sapiens, UniProt O14965); experiment: Expression proteomics in THP-1 cells: AURKA protein level
# T2 construct: endogenous in cells; host or cells: THP-1
# T2 sequence (O14965 1-403): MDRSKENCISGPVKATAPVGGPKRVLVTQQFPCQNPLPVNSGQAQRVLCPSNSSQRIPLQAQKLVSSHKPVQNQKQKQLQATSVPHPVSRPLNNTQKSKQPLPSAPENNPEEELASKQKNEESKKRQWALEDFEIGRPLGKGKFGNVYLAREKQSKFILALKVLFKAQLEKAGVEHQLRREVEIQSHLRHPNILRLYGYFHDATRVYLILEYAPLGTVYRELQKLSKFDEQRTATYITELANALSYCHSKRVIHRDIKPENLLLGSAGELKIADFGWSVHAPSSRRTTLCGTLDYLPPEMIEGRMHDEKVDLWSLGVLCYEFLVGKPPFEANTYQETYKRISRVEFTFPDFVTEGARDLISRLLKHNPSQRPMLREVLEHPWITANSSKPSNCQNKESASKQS
# Description: as §1, §2, §3, §4, §5
# ABL1 = biological target: T3, ABL1 (Homo sapiens, UniProt P00519); experiment: Expression proteomics in THP-1 cells: ABL1 protein level; conditions: ABL1, THP-1 cells
# T3 construct: endogenous in cells; host or cells: THP-1
# Description: as §1, §2, §3, §4, §5
# PTK2B = biological target: T4, PTK2B (Homo sapiens, UniProt Q14289); experiment: Expression proteomics in THP-1 cells: PTK2B protein level
# T4 construct: endogenous in cells; host or cells: THP-1
# Description: as §1, §2, §3, §4, §5
# AURKB = biological target: T5, AURKB (Homo sapiens, UniProt Q96GD4); experiment: Expression proteomics in THP-1 cells: AURKB protein level
# T5 construct: endogenous in cells; host or cells: THP-1
# Description: as §1, §2, §3, §4, §5
# T5 sequence (Q96GD4 whole entry): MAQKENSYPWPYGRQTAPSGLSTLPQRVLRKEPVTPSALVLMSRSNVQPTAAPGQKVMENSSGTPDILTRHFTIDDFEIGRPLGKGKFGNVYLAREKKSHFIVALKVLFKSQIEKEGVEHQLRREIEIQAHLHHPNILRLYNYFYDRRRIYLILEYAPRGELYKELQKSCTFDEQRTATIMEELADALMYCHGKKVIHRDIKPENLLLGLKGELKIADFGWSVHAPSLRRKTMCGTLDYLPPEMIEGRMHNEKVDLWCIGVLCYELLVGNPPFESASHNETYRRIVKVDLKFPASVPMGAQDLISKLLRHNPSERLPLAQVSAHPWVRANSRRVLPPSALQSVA
# T4 sequence (Q14289 whole entry): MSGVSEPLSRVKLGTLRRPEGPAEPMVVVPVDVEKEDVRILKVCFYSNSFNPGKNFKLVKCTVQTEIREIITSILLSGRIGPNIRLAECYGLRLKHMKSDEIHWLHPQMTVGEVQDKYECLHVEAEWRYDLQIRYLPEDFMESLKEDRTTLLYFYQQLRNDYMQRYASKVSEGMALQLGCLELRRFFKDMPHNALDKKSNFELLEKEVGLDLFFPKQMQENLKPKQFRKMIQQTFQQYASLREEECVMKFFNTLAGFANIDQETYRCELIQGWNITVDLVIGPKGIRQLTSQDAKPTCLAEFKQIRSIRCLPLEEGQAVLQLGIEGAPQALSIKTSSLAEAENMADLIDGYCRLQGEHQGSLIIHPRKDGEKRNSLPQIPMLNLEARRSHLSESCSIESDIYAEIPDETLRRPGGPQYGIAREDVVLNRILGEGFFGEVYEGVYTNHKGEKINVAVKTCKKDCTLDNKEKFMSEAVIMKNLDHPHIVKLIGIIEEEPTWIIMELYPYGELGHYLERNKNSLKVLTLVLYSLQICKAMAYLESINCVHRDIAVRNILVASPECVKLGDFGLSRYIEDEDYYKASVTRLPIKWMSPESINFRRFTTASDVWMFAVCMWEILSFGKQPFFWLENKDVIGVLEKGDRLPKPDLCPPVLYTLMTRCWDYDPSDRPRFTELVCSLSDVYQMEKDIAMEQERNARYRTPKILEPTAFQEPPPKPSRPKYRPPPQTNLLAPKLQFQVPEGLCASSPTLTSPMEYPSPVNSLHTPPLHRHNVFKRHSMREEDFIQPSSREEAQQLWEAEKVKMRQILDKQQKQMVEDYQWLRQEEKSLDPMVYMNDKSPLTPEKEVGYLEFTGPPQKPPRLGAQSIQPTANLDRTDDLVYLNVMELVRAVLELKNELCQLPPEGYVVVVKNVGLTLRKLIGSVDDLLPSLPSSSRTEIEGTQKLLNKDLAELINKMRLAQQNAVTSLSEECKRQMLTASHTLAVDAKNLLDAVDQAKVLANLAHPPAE
# T1 sequence (P51812 whole entry): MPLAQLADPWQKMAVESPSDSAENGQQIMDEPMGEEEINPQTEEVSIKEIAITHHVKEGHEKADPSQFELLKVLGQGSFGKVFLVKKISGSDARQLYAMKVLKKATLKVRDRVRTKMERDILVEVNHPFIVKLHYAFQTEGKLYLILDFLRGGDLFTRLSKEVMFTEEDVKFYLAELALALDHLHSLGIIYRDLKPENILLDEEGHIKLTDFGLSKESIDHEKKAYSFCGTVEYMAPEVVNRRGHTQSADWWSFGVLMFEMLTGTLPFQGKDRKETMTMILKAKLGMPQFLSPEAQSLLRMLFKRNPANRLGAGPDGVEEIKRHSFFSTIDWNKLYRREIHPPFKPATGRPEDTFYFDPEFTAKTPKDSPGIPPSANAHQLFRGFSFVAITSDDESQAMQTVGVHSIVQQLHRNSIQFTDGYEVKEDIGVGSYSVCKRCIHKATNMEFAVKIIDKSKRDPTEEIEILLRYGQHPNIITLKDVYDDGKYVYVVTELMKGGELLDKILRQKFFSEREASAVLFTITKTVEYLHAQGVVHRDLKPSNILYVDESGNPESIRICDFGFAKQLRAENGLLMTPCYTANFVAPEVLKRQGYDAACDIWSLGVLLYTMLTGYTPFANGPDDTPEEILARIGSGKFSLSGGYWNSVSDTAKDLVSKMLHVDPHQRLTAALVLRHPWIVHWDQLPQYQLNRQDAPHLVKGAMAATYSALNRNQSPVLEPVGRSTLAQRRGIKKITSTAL
# T3 sequence (P00519 whole entry): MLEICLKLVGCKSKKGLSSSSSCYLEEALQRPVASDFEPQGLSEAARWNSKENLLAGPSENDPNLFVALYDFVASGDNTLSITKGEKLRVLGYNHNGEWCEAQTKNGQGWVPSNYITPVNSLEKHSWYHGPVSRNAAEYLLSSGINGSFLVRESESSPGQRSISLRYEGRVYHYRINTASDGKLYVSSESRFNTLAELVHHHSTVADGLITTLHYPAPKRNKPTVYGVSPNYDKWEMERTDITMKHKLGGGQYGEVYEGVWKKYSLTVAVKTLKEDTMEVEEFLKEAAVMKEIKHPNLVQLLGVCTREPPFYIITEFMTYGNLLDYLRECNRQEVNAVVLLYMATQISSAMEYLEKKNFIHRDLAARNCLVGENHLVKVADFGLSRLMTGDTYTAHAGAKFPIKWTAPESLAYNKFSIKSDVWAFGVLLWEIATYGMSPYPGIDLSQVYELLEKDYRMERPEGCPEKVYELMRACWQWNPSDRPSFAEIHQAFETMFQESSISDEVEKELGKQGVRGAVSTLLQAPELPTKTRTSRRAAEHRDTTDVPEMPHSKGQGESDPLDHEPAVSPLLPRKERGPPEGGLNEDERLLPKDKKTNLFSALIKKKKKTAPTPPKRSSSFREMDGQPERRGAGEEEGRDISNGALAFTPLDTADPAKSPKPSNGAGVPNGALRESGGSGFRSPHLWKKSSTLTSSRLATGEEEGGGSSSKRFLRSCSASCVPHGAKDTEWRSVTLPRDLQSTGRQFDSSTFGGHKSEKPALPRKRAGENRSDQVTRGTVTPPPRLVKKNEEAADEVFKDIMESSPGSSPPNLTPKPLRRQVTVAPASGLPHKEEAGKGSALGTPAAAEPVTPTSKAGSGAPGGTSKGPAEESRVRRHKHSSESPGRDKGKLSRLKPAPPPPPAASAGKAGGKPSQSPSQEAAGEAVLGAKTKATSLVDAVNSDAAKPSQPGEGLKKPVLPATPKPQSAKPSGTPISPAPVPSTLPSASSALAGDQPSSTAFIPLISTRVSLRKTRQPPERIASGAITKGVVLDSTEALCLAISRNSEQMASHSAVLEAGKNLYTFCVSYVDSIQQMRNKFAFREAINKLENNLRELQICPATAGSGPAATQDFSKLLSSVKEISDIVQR
smiles,measurement,setting,value
"CNC(=O)c1ccccc1Nc1nc(Nc2ccc(N3CCN(CCOCCOCCOCCOCC(=O)Nc4cccc5c4CN(C4CCC(=O)NC4=O)C5=O)CC3)cc2)ncc1Cl.O=CO (centres unmarked) [CEREBLON_PROTAC, 14-(4-(4-((5-Chloro-4-((2-(methylcarbamoyl)phenyl)amino)pyrimidin-2-yl)amino)phenyl)piperazin-1-yl)-N-(2-(2,6-dioxopiperidin-3-yl)-1-oxoisoindolin-4-yl)-3,6,9,12-tetraoxatetradecan-1-amide formate]",log2 rel. fc. to vehicle control,"RPS6KA3; 24 h 0.1 μM, n = 1",−0.74
same,log2 rel. fc. to vehicle control,"RPS6KA3; 24 h 0.1 μM, n = 2",−0.72
same,log2 rel. fc. to vehicle control,"RPS6KA3; 24 h 1 μM, n = 1",−1.12
same,log2 rel. fc. to vehicle control,"RPS6KA3; 24 h 1 μM, n = 2",−1.11
same,log2 rel. fc. to vehicle control,"AURKA; 24 h 0.1 μM, n = 1",−1.45
same,log2 rel. fc. to vehicle control,"AURKA; 24 h 0.1 μM, n = 2",−1.00
same,log2 rel. fc. to vehicle control,"AURKA; 24 h 1 μM, n = 1",−2.10
same,log2 rel. fc. to vehicle control,"AURKA; 24 h 1 μM, n = 2",−1.93
same,log2 rel. fc. to vehicle control,"ABL1; 24 h 0.1 μM, n = 1",−0.72
same,log2 rel. fc. to vehicle control,"ABL1; 24 h 0.1 μM, n = 2",−0.70
same,log2 rel. fc. to vehicle control,"ABL1; 24 h 1 μM, n = 1",−1.43
same,log2 rel. fc. to vehicle control,"ABL1; 24 h 1 μM, n = 2",−1.63
same,log2 rel. fc. to vehicle control,"PTK2B; 24 h 0.1 μM, n = 1",−2.34
same,log2 rel. fc. to vehicle control,"PTK2B; 24 h 0.1 μM, n = 2",−2.50
same,log2 rel. fc. to vehicle control,"PTK2B; 24 h 1 μM, n = 1",−2.09
same,log2 rel. fc. to vehicle control,"PTK2B; 24 h 1 μM, n = 2",−2.18
same,log2 rel. fc. to vehicle control,"AURKB; 24 h 0.1 μM, n = 1",−1.75
same,log2 rel. fc. to vehicle control,"AURKB; 24 h 0.1 μM, n = 2",−1.44
same,log2 rel. fc. to vehicle control,"AURKB; 24 h 1 μM, n = 1",−0.83
same,log2 rel. fc. to vehicle control,"AURKB; 24 h 1 μM, n = 2",−1.33
